From patent publication US10322124B2, “6-hydroxy-2,5,7,8-tetramethylchroman-compounds for the treatment of chronic obstructive airway diseases” (Sulfateq B.V., priority 2014, dated 2019)
“Also recorded” adds a separate entry of the source. Like-named read-outs stand apart in the source and are kept apart here.

Tests used:
[1] = test system: bovine trachea smooth muscle (BTSM) strips; test: Bovine trachea smooth muscle (BTSM) strips, isometric tension measurements; details: for EC50: Bos taurus, relaxation of methacholine-pre-contracted BTSM strips, mean ± SEM, 3 determinations; for effect of the ß2-adrenoceptor antagonist propranolol on the relaxation of BTSM strips induced by the compound: 1 μM propranolol, 30 minutes prior (FIG. 4); for shift of the dose response curve for isoprenaline (isoprenaline-induced relaxation): BTSM strips pre-incubated with compound at 30 μM (FIG. 5); for contraction induced by methacholine: BTSM strips pre-incubated with compound at 30 μM, methacholine dose response curve (FIG. 6); for relaxation of methacholine-pre-contracted BTSM strips: accumulative doses 1-300 μM, strips pre-contracted with methacholine (FIG. 3); for isometric tension of BTSM strips at 30 μM: concentration of 30 μM
Procedure: (§1) For cell-based studies, the SUL compounds were dissolved in 0.9% NaCl as 1 mM stock solutions. For the isometric tension measurements, the SUL compounds were dissolved in 100% DMSO as 100 mM stock solution.
Assay 3: Bovein Trachea Smooth Muscle (BTSM) Strips and Isometric Tension Measurements
Isometric tension measurements were performed as described previously (Roscioni et al., 2011: Roscioni, Prins et al., 2011). BTSM strips were mounted for isometric recording in organ-baths, containing Krebs-Henseleit (KH) buffer, containing in mM: […], 25 NaHCO3, 5.5 glucose, 5.6 KCl, 1.18 MgSO4, 2.50 CaCl2, 1.28 NaH2PO4, pre-gasses with 5% of CO2 and 95% O2, pH 7.4. After dissection of the smooth muscle layer and careful removal of connective tissue, BTSM strips of approximately 1 cm length and 2 mm width were prepared. Tissue strips were cultured in DMEM supplemented with non-essential amino acid mixture (1:100), sodium pyruvate (1 mM), gentamicin (45 μg*ml−1), penicillin (100 U*ml−1), streptomycin 100 μg*ml−1, amphotericin B (1.5 μg*ml−1) apo-transferrin (5 μg*ml−1) and ascorbic acid (100 μM). The BTSM strips were cultured for 1-3 days before isometric tension measurement in an Innova 4000 incubator shaker 37° C. 55 rpm).
For isometric tension measurements (Roscioni et al., 2011: Roscioni, Prins et al., 2011). BTSM strips were calibrated, were mounted into the transducers and submerged into the organ baths in pre-gassed KH buffer. Each strip was adjusted to a basal tension of 3 gram. Then, the strips were washed, equilibrated again for 60 minutes, followed by pre-contractions induced by 1×10-3.5 μM methacholine. To analyze acute effects of the SUL-compounds on the isometric tension, the strips were incubated with accumulative doses of the SUL-compounds (1-300 μM), followed by the addition of 0.01 μM isoprenaline.
To analyze potential role of the ß2-AR in the effects induced by the SUL-compounds, the strips were incubated with 1 μM propranonol for 30 minutes prior addition of the SUL-compounds. To analyze potential effects of the SUL-compounds on the isoprenaline-induced relaxation, the strips were first incubated with the SUL-compounds (30 μM each), followed by the addition of accumulative doses of isoprenaline (1×10.5-1 μM). Finally, to analyze potential effects of the SUL-compounds on the methacholine-induced contraction, the strips were first incubated with the SUL-compounds (30 μM each), followed by addition of accumulative doses of methacholine (0.001-30 μM), before the addition of 0.01 μM isoprenaline.
Data are shown are mean±standard error of the mean. One-way ANOVA followed by Bonferroni post hoc test, 2-tailed paired t-test, two-way ANOVA was used when appropriate to identify statistical difference between means. A statistical difference was defined as significant at p<0.05.

[2] = test system: IL-8 release from hTERT cells; test: Release of interleukin-8 (IL-8) from hTERT cells exposed to CSE; type: cell-based, human; details: 24 hours, 15% CSE, ELISA (FIG. 2)
From the text: (§2) In this example, the effects of […] H2S compounds, i.e. SUL90, SUL121 were studied on: • 1) The cell viability of human (immortalized) airway smooth muscle cells (hTERT cells), • 2) The release of the inflammation mediator IL-8 from hTERT cells, • 3) Airway smooth muscle contractility of bovine trachea smooth muscle strips. The samples used were: • Two SUL-compounds: SUL90, SUL121; • Human telomerase reverse transcriptase immortalized airway smooth muscles (hTERT) cells, cultured as previously described (Oldenburger et al., 2012). Prior to the experiments, cells were serum-deprived for 1 day, followed by cell treatment with the indicated concentrations of the SUL-compounds in the absence and presence of 15% cigarette smoke extract (CSE) for additional 24 hours. As controls, 1 μM fenoterol and 500 μM of the H2S donor NaHS were used. • 100% cigarette smoke extract (CSE), freshly made by combusting (Watson Marlow 323 E/D, Rotterdam, The Netherlands) the smoke of two research cigarettes (University of Kentucky 2R4F) through 25 mL of DMEM (FBS-free) at a speed of approximately 1 cigarette/5 minutes. Afterwards, CSE was diluted to 15% (Oldenburger et al., 2012).
as §1
Assay 2: Release of interleukin-8 (IL-8) from hTERT Cells
This assay was used to determine the release of interleukin-8 from hTERT cells, fenoterol (1 μM) and the H2S donor (500 μM) served as controls. 24 hours after cell stimulation with the indicated concentrations of the SUL-compounds in the absence and presence of 15% CSW, culture medium was collected to measure the IL-8 concentration in the cell supernatants according to the manufacturer's instructions (PeliKine Compact ELISA kit, Sanquin, The Netherlands), as previously described (Oldenburger et al., 2012.

hTERT cells = test: Trypan blue cell counting (cell viability); type: cell-based, human; details: 24 hours, absence or presence of 15% CSE, trypan blue counting (FIG. 1)
From the text: as §2, §1
Assay 1: Trypan Blue Cell Counting
For cell viability measurements, trypan blue cell counting was performed as previously described (Oldenburger et al., 2012). As control, 500 μM of the H2S donor NaHS was used. Alternatively, alamar blue measurements were performed to determine cell viability essentially as described before (Oldenburger et al., 2012).
Briefly, hTERT cells were plated on 24-well plates as a cell density of 10,000 cells/well. Again cells were serum-deprived for 1 day, followed by cell treatment with the indicated concentrations of the SUL-compounds in the absence and presence of 15% cigarette smoke extract (CSE) for additional 24 hours.

[3] = 1 μM propranolol pre-incubation, read-out: pD2, Propranolol (converted)
[4] = solvent treated, read-out: pD2, Solvent (converted)

| EC50 [1, 3] | EC50 [1, 4] | SMILES | CSE-induced IL-8 release from hTERT cells [2] | effect of the ß2-adrenoceptor antagonist propranolol on the relaxation of BTSM strips induced by the compound [1] | shift of the dose response curve for isoprenaline (isoprenaline-induced relaxation) [1] | contraction induced by methacholine [1] | relaxation of methacholine-pre-contracted BTSM strips [1] | isometric tension of BTSM strips at 30 μM [1] | also measured |
| --- | --- | --- | --- | --- | --- | --- | --- | --- | --- |
| 3.98 µM | 0.02 µM | CC(C)NCC(O)c1ccc(O)c(O)c1 (centres unmarked) [Isoprenaline, reference compound] |  |  |  |  |  |  |  |
| 316 µM | 398 µM | Cc1c(C)c2c(c(C)c1O)CCC(C)(C(=O)NO)O2 (centres unmarked) [Sul-90, N,6-dihydroxy-2,5,7,8-tetramethylchroman-2-carboxamide] | significantly reduce the release; also recorded: inhibit CSE-induced IL-8 release | trend to a left-ward shift; also recorded: does not alter the relaxation | not | reduced the contraction; also recorded: decrease the contraction | shows a trend to induce relaxation | leave the isometric tension unaffected | CSE-induced IL-8 release from hTERT cells ([2]; listed as SUL90): inhibit the cellular IL-8 release; effect of the ß2-adrenoceptor antagonist propranolol on the relaxation of BTSM strips induced by the compound ([1]; listed as SUL90): ß2-adrenoceptor-independent; effect of the ß2-adrenoceptor antagonist propranolol on the relaxation of BTSM strips induced by the compound ([1]; listed as Sul90): not affected by propranolol; contraction induced by methacholine ([1]; listed as SUL90): significantly reduce the contraction; concentrations at which a trend to relaxation of BTSM strips is shown ([1]; methacholine-pre-contracted BTSM strips (FIG. 3)): higher than 100 μM; cell viability of hTERT cells (hTERT cells; listed as SUL90): do not severely alter cell viability; cell viability of hTERT cells (hTERT cells; listed as SUL-90): seem not to severely alter the cell viability |
| 316 µM | 316 µM | Cc1c(C)c2c(c(C)c1O)CCC(C)(C(=O)N1CCNCC1)O2 (centres unmarked) [Sul-121, (6-hydroxy-2,5,7,8-tetramethylchroman-2-yl)(piperazin-1-yl)methanone] | significantly reduce the release; also recorded: inhibit CSE-induced IL-8 release | not affected by propranolol; also recorded: does not alter the relaxation | significant right-ward shift; also recorded: shifts the dose response curve or isoprenaline to the right | decrease the contraction | even more pronounced relaxation, reaching statistical significance; also recorded: induce relaxation | leave the isometric tension unaffected | CSE-induced IL-8 release from hTERT cells ([2]; listed as SUL121): inhibit the cellular IL-8 release; effect of the ß2-adrenoceptor antagonist propranolol on the relaxation of BTSM strips induced by the compound ([1]; listed as SUL121): ß2-adrenoceptor-independent; shift of the dose response curve for isoprenaline (isoprenaline-induced relaxation) ([1]; listed as SUL212): right-ward shift; contraction induced by methacholine ([1]; listed as SUL121): significantly reduce the contraction; contraction induced by methacholine ([1]; listed as Sul121): reduced the contraction; cell viability of hTERT cells (hTERT cells; listed as SUL121): do not severely alter cell viability; cell viability of hTERT cells (hTERT cells; listed as SUL-121): seem not to severely alter the cell viability |

The next lines start with the molecule.

| SMILES | EC50 [1, 3] | EC50 [1, 4] | CSE-induced IL-8 release from hTERT cells [2] | effect of the ß2-adrenoceptor antagonist propranolol on the relaxation of BTSM strips induced by the compound [1] | shift of the dose response curve for isoprenaline (isoprenaline-induced relaxation) [1] | contraction induced by methacholine [1] | relaxation of methacholine-pre-contracted BTSM strips [1] | isometric tension of BTSM strips at 30 μM [1] | also measured |
| --- | --- | --- | --- | --- | --- | --- | --- | --- | --- |
| Cc1c(C)c2c(c(C)c1O)CCC(C)(C(=O)N1CCN(CC(=O)O)CC1)O2 (centres unmarked) [Sul-136, 2-(4-(6-hydroxy-2,5,7,8-tetramethylchroman-2-carbonyl)piperazin-1-yl)acetic acid] |  |  |  |  |  |  | do not alter the contractile tone |  | cell viability of hTERT cells (hTERT cells): do not alter cell viability |
| CC(C)NCC(O)COc1cccc2ccccc12 (centres unmarked) [propranolol, reference compound] |  |  |  |  |  |  |  |  | shift of the dose-response curve for isoprenaline by propranolol ([1]; BTSM strips pre-incubated with 1 μM propranolol (FIG. 4)): right-ward shift |
